Assay results taken from the supplement of paper PMC4380931.

Columns and labels:
Test in all cases: apoptotic fraction of cells (caspase-3 NucView488 positive); higher = more apoptosis
WM115 = test system: WM115
Description: (§1)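 BRAF V600E/D melanoma cell lines were seeded in 96-well plates, treated in 4 replicates with seven doses (3.16 nM to 3.16 uM) of RAF/MEK inhibitors for 24, 48 or 72 h, and stained with Hoechst 33342 (nuclei) and DEVD-NucView488 caspase-3 substrate. Plates were imaged on an Operetta. Relative viability is the cell count normalised to a DMSO-treated control; apoptosis fraction is the fraction of NucView488-positive nuclei.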

RVH421 = test system: RVH421
Description: as §1

SKMEL28 = test system: SKMEL28
Description: as §1

LOXIMVI = test system: LOXIMVI
Description: as §1

K2 = test system: K2
Description: as §1

WM1552C = test system: WM1552C
Description: as §1

MZ7MEL = test system: MZ7MEL
Description: as §1

Cc1ccc(NC(=O)c2cccc(C(C)(C)C#N)c2)cc1Nc1ccc2ncn(C)c(=O)c2c1 [AZ628]
apoptotic fraction of cells
Conditions	0.00316 µM	0.01 µM	0.0316 µM	0.1 µM	0.316 µM	1 µM	3.16 µM
K2, 24 h	0.00396	0.003	0.00276	0.00598	0.0287	0.117	0.135
K2, 48 h	0.00258	0.00301	0.00475	0.0219	0.0649	0.254	0.358
LOXIMVI, 24 h	0.0535	0.0347	0.0365	0.0586	0.0296	0.0677	0.0554
LOXIMVI, 48 h	0.0814	0.0536	0.0416	0.0479	0.063	0.118	0.163
LOXIMVI, 72 h	0.139	0.104	0.0405	0.0836	0.117	0.211	0.497
MZ7MEL, 24 h	0.0132	0.0129	0.0104	0.00814	0.0204	0.032	0.0453
MZ7MEL, 48 h	0.0137	0.0171	0.0173	0.0263	0.0421	0.0561	0.0749
MZ7MEL, 72 h	0.0208	0.0145	0.0428	0.156	0.236	0.265	0.293
RVH421, 24 h	0.0557	0.0513	0.04611	0.0493	0.0559	0.0518	0.0578
RVH421, 48 h	0.0503	0.053	0.0555	0.0583	0.0645	0.0779	0.108
RVH421, 72 h	0.0338	0.032	0.038	0.0442	0.0517	0.105	0.165
SKMEL28, 48 h	0.04	0.0326	0.032	0.0352	0.0404	0.063	0.09
SKMEL28, 72 h	0.0319	0.028	0.0262	0.0319	0.0526	0.107	0.142
WM115, 24 h	0.0464	0.0415	0.0535	0.0496	0.0725	0.135	0.202
WM115, 48 h	0.0302	0.0498	0.0357	0.0517	0.139	0.311	0.379
WM115, 72 h	0.0295	0.0285	0.0418	0.159	0.419	0.644	0.82
WM1552C, 24 h	0.0672	0.0724	0.0622	0.0716	0.0799	0.0776	0.104
WM1552C, 48 h	0.0725	0.0688	0.0702	0.0329	0.0464	0.0857	0.108
WM1552C, 72 h	0.0855	0.0732	0.0827	0.0883	0.134	0.153	0.172
